Source: the NIST ThermoML archive (doi:10.1021/je900597n)

Test: xn = mol fraction of the nth substance listed
Settings: 101 kPa, Liquid; for speed of sound: Pulse-echo method

CCCNCCC [dipropylamine] + COC(C)(C)C
Settings	mass density, 288.15 K [kg/m3]	mass density, 293.15 K [kg/m3]	mass density, 298.15 K [kg/m3]	mass density, 303.15 K [kg/m3]	mass density, 308.15 K [kg/m3]	speed of sound, 288.15 K [m/s]	speed of sound, 293.15 K [m/s]	speed of sound, 298.15 K [m/s]	speed of sound, 303.15 K [m/s]	speed of sound, 308.15 K [m/s]
x2 = 0	745.064	740.501	735.924	731.333	726.732	1235.1	1213.4	1191.9	1170.4	1149
x2 = 0.0455	744.529	739.961	735.381	730.779	726.199	1226.5	1204.6	1182.9	1161.5	1140.1
x2 = 0.0993	743.741	739.141	734.529	729.903	725.268	1218.5	1196.6	1174.9	1153.4	1132
x2 = 0.1886	743.725	739.088	734.436	729.765	725.081	1206.8	1184.9	1163	1141.4	1120
x2 = 0.304	744.015	739.319	734.607	729.854	725.082	1191.2	1169.1	1147.2	1125.5	1103.9
x2 = 0.3981	744.373	739.628	734.96	730.165	725.325	1179	1156.8	1134.8	1112.9	1091.2
x2 = 0.4954	744.92	740.107	735.272	730.41	725.531	1164.9	1142.8	1120.8	1099.1	1076.8
x2 = 0.5839	745.36	740.49	735.593	730.664	725.713	1152.3	1130	1107.8	1085.9	1063.8
x2 = 0.7057	745.893	740.912	735.904	730.891	725.831	1131.9	1109.4	1087	1064.9	1042.5
x2 = 0.7685	746.206	741.193	736.153	731.058	725.925	1121.7	1099.1	1076.6	1054.4	1032
x2 = 0.8876	746.684	741.588	736.455	731.289	726.066	1103.9	1080.8	1057.9	1035.3	1012.9
x2 = 0.9337	746.947	741.806	736.641	731.421	726.159	1097	1073.6	1050.7	1028	1005.4
